Test results from BindingDB's records for PubMed 9353361 (National Institute of Diabetes and Digestive and Kidney …, 1997).
Several values for one entry are separate records, joined by “and”; a condition that tells them apart may be missing. Identical values can stand only once.

Target: Gamma-aminobutyric acid receptor subunit alpha-5 (Rattus norvegicus, UniProt P19969)
Sequence (P19969 whole entry): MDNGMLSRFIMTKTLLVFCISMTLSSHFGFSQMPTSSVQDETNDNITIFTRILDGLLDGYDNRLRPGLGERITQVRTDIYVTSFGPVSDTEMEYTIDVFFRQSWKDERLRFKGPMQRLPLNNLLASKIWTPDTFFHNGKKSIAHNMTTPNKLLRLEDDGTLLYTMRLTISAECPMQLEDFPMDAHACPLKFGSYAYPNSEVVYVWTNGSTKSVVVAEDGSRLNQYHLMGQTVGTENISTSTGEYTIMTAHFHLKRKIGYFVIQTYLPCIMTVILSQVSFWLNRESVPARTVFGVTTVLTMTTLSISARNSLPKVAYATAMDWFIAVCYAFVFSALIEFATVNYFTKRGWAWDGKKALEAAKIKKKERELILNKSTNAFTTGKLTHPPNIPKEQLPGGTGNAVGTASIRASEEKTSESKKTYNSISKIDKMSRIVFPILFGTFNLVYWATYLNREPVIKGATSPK

| Compound | Ki |
| --- | --- |
| CN1Cc2c(C(=O)OC(C)(C)C)ncn2-c2ccc(C#C[Si](C)(C)C)cc2C1=O | 1.03 nM and 0.83 nM |
| CN1C(=O)CN=C(c2ccccc2)c2cc(C#N)ccc21 | 34 nM |
